Test results taken from patent EP4653437A2 (Innovo Therapeutics Inc., priority 2023, dated 2024).

biological target: T1, human 15-PGDH (Homo sapiens, UniProt P15428); test: Evaluation of 15-PGDH inhibitory activity (fluorescence enzyme assay, NAD+/PGE2); type: biochemical; conditions: human 15-PGDH enzyme, fluorescence Vmax
T1 construct: purchased R&D System 5660-DH
T1 sequence (P15428 1-266): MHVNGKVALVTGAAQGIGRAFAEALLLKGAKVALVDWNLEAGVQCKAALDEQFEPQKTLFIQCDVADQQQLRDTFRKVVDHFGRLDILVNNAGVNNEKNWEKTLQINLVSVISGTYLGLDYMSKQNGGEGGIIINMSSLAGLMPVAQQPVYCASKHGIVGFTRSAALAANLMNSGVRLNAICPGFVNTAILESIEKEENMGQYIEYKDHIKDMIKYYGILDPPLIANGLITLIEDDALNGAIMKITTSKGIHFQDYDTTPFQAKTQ
Method: 15-PGDH inhibition activity of Example compounds was measured as follows. 6.7 ng of human 15-PGDH (R&D System# 5660-DH) enzyme (10 µL) was added to a black 96 well plate, 60 µL of buffer (50 mM Tris-HCl, pH 7.5, 0.01% Tween 20) was added, and 10 µL of 200 µM β-Nicotinamide adenine dinucleotide sodium salt (Sigma, Cat# N0632-5G) was added. 10 µL of (10x) compound solution in DMSO was added and reacted for 10 minutes at room temperature.

Compound	IC50 [nM]
O=C(c1cc2nc(-c3ccc4cn[nH]c4c3)ccc2[nH]1)N1CCCCC1 [Example 190, (5-(1H-indazol-6-yl)-1H-pyrrolo[3,2-b]pyridin-2-yl)(piperidin-1-yl)methanone]	≤ 100
O=C(c1cc2nc(-c3ccc4c(c3)OCO4)ncc2[nH]1)N1CCCCC1 [Example 187, (2-(benzo[d][1,3]dioxol-5-yl)-5H-pyrrolo[3,2-d]pyrimidin-6-yl)(piperidin-1-yl)methanone]	100 to 1000
COc1ccc(-c2ccc3[nH]c(C(=O)N4CCCCC4)cc3n2)cc1OC [Example 181, (5-(3,4-dimethoxyphenyl)-1H-pyrrolo[3,2-b]pyridin-2-yl)(piperidin-1-yl)methanone]	100 to 1000
O=C(c1cncc(-c2cccc3c(C(=O)N4CCCCC4)cnn23)c1)N1CC2(CCC2)C1 [Example 43, (7-(5-(2-azaspiro[3.3]heptane-2-carbonyl)pyridin-3-yl)pyrazolo[1,5-a]pyridin-3-yl)(piperidin-1-yl)methanone]	≤ 100
COc1ccc(-c2cccc3c(C(=O)N4CCCCC4)nnn23)cc1 [Example 168, (7-(4-methoxyphenyl)-[1,2,3]triazolo[1,5-a]pyridin-3-yl)(piperidin-1-yl)methanone]	100 to 1000
CN1CCc2cc(-c3cccc4c(C(=O)N5CCCCC5)cnn34)ccc2C1=O [Example 137, 2-methyl-6-(3-(piperidine-1-carbonyl)pyrazolo[1,5-a]pyridin-7-yl)-3,4-dihydroisoquinolin-1(2H)-one]	≤ 100
O=C(c1cnn2cc(-c3cccc(Cl)c3)ccc12)N1CCCCC1 [Example 170, (6-(3-chlorophenyl)pyrazolo[1,5-a]pyridin-3-yl)(piperidin-1-yl)methanone]	≤ 100
O=C(c1cc2c(-c3ccc4c(c3)OCO4)ncnn2c1)N1CCCCC1 [Example 176, (4-(benzo[d][1,3]dioxol-5-yl)pyrrolo[2,1-f][1,2,4]triazin-6-yl)(piperidin-1-yl)methanone]	> 1000
Cn1ccc2ccc(-c3cccc4c(C(=O)N5CCCCC5)cnn34)cc2c1=O [Example 135, 2-methyl-7-(3-(piperidine-1-carbonyl)pyrazolo[1,5-a]pyridin-7-yl)isoquinolin-1(2H)-one]	≤ 100
Cc1cc(-c2cccc(Cl)c2)c2ncc(C(=O)N3CCCCC3)n2c1 [Example 165, (8-(3-chlorophenyl)-6-methylimidazo[1,2-a]pyridin-3-yl)(piperidin-1-yl)methanone]	100 to 1000
O=C(c1cc2c(-c3ccc4c(c3)OCO4)cncc2[nH]1)N1CCCCC1 [Example 175, (4-(benzo[d][1,3]dioxol-5-yl)-1H-pyrrolo[2,3-c]pyridin-2-yl)(piperidin-1-yl)methanone]	> 1000
O=C(c1cnn2c(-c3ccc4ccccc4c3)cccc12)N1CCCCC1 [Example 129, (7-(naphthalen-2-yl)pyrazolo[1,5-a]pyridin-3-yl)(piperidin-1-yl)methanone]	≤ 100
COc1cccc(-c2cccc3c(C(=O)N4CCCCC4)cnn23)c1 [Example 4, (7-(3-methoxyphenyl)pyrazolo[1,5-a]pyridin-3-yl)(piperidin-1-yl)methanone]	≤ 100
O=C(c1cc2c(-c3ccc4c(c3)OCO4)ncnc2[nH]1)N1CCCCC1 [Example 177, (4-(benzo[d][1,3]dioxol-5-yl)-7H-pyrrolo[2,3-d]pyrimidin-6-yl)(piperidin-1-yl)methanone]	> 1000
O=C(c1cnc2c(-c3cccc(Cl)c3)cccn12)N1CCCCC1 [Example 162, (8-(3-chlorophenyl)imidazo[1,2-a]pyridin-3-yl)(piperidin-1-yl)methanone]	≤ 100
O=C(c1cc2nc(-c3ccc(F)cc3)ccc2[nH]1)N1CCCCC1 [Example 182, (5-(4-fluorophenyl)-1H-pyrrolo[3,2-b]pyridin-2-yl)(piperidin-1-yl)methanone]	100 to 1000
Cn1nccc1-c1cccc2c(C(=O)N3CCCCC3)cnn12 [Example 25, (7-(1-methyl-1H-pyrazol-5-yl)pyrazolo[1,5-a]pyridin-3-yl)(piperidin-1-yl)methanone]	≤ 100
O=C(c1cnn2c(-c3ccc([N+](=O)[O-])cc3)cccc12)N1CCCCC1 [Example 13, (7-(4-nitrophenyl)pyrazolo[1,5-a]pyridin-3-yl)(piperidin-1-yl)methanone]	≤ 100
O=C(c1cc2c(-c3ccc4c(c3)OCO4)nccc2[nH]1)N1CCCCC1 [Example 174, (4-(benzo[d][1,3]dioxol-5-yl)-1H-pyrrolo[3,2-c]pyridin-2-yl)(piperidin-1-yl)methanone]	> 1000
O=C(c1cc2nc(-c3ccoc3)ccc2[nH]1)N1CCCCC1 [Example 183, (5-(furan-3-yl)-1H-pyrrolo[3,2-b]pyridin-2-yl)(piperidin-1-yl)methanone]	> 1000

Compound	IC50 [nM]
O=C(c1cc2nc(-c3ccc(Cl)cc3)ccc2[nH]1)N1CCCCC1 [Example 180, (5-(4-chlorophenyl)-1H-pyrrolo[3,2-b]pyridin-2-yl)(piperidin-1-yl)methanone]	100 to 1000
Cc1nn(C)c(C)c1S(=O)(=O)Nc1cccc2c(C(=O)N3CCCCC3)cnn12 [Example 240, 1,3,5-trimethyl-N-[3-(piperidine-1-carbonyl)pyrazolo[1,5-a]pyridin-7-yl]pyrazole-4-sulfonamide]	> 1000
O=C(c1cncc(-c2cccc3c(C(=O)N4CCCCC4)cnn23)c1)N1CC(F)(F)C1 [Example 44, (3,3-difluoroazetidin-1-yl)(5-(3-(piperidine-1-carbonyl)pyrazolo[1,5-a]pyridin-7-yl)pyridin-3-yl)methanone]	≤ 100
O=C(c1cc2nc(-c3ccc4c(c3)OCO4)ccc2[nH]1)N1CCCCC1 [Example 173, (5-(benzo[d][1,3]dioxol-5-yl)-1H-pyrrolo[3,2-b]pyridin-2-yl)(piperidin-1-yl)methanone]	≤ 100
O=C(c1cnn2c(-c3ccc4[nH]ccc4c3)cccc12)N1CCCCC1 [Example 126, (7-(1H-indol-5-yl)pyrazolo[1,5-a]pyridin-3-yl)(piperidin-1-yl)methanone]	≤ 100
CC(C)(C)OC(=O)N1CCN(C(=O)c2cccc(-c3cccc4c(C(=O)N5CCCCC5)cnn34)c2)CC1 [Example 35, tert-butyl 4-(3-(3-(piperidine-1-carbonyl)pyrazolo[1,5-a]pyridin-7-yl)benzoyl)piperazine-1-carboxylate]	≤ 100
COC(=O)c1ccc(-c2cccc3c(C(=O)N4CCCCC4)cnn23)cc1 [Example 11, methyl 4-(3-(piperidine-1-carbonyl)pyrazolo[1,5-a]pyridin-7-yl)benzoate]	≤ 100
O=C(c1c[nH]c2c(-c3cccc(Cl)c3)cccc12)N1CCCCC1 [Example 169, (7-(3-chlorophenyl)-1H-indol-3-yl)(piperidin-1-yl)methanone]	≤ 100
O=C(c1cc2nc(-c3coc4ccccc34)ccc2[nH]1)N1CCCCC1 [Example 188, (5-(benzofuran-3-yl)-1H-pyrrolo[3,2-b]pyridin-2-yl)(piperidin-1-yl)methanone]	100 to 1000
O=C(c1cnc2c(-c3ccc([N+](=O)[O-])cc3)cccn12)N1CCCCC1 [Example 163, (8-(4-nitrophenyl)imidazo[1,2-a]pyridin-3-yl)(piperidin-1-yl)methanone]	≤ 100
COc1ccc(-c2ccc3c(C(=O)N4CCCCC4)cnn3c2)cc1 [Example 171, (6-(4-methoxyphenyl)pyrazolo[1,5-a]pyridin-3-yl)(piperidin-1-yl)methanone]	≤ 100
O=C(c1cc2nc(-c3ccncc3)ccc2[nH]1)N1CCCCC1 [Example 184, piperidin-1-yl(5-(pyridin-4-yl)-1H-pyrrolo[3,2-b]pyridin-2-yl)methanone]	100 to 1000
O=C(c1cnn2c(-c3ccc(C(F)(F)F)nc3Cl)cccc12)N1CCCCC1 [Example 272, (7-(2-chloro-6-(trifluoromethyl)pyridin-3-yl)pyrazolo[1,5-a]pyridin-3-yl)(piperidin-1-yl)methanone]	≤ 100
COc1ccc(-c2cccc3c(C(=O)N4CCCCC4)cnn23)cc1OC [Example 24, (7-(3,4-dimethoxyphenyl)pyrazolo[1,5-a]pyridin-3-yl)(piperidin-1-yl)methanone]	≤ 100
O=C(Nc1cccnc1)c1ccc(-c2cccc3c(C(=O)N4CCCCC4)cnn23)cc1 [Example 71, 4-(3-(piperidine-1-carbonyl)pyrazolo[1,5-a]pyridin-7-yl)-N-(pyridin-3-yl)benzamide]	≤ 100
COc1ccc(-c2ccc3[nH]c(C(=O)N4CCCCC4)cc3n2)cc1 [Example 179, (5-(4-methoxyphenyl)-1H-pyrrolo[3,2-b]pyridin-2-yl)(piperidin-1-yl)methanone]	100 to 1000
O=C(c1cnn2c(-c3coc4ccccc34)cccc12)N1CCCCC1 [Example 122, (7-(benzofuran-3-yl)pyrazolo[1,5-a]pyridin-3-yl)(piperidin-1-yl)methanone]	≤ 100
O=C(c1cnn2c(-c3ccc4c(c3)OCO4)cccc12)N1CCCCC1 [Example 121, (7-(benzo[d][1,3]dioxol-5-yl)pyrazolo[1,5-a]pyridin-3-yl)(piperidin-1-yl)methanone]	≤ 100
O=C(c1cnn2c(-c3cccc(Cl)c3)cccc12)N1CCCCC1 [Example 2, (7-(3-chlorophenyl)pyrazolo[1,5-a]pyridin-3-yl)(piperidin-1-yl)methanone]	≤ 100
O=C(c1cnn2c(-c3ccccc3)cccc12)N1CCCCC1 [Example 1]	≤ 100
